Reference: EP0252983B1, “SALTS OF N-(VINYLOXIETHYL)DITHIOCARBAMIC ACID, METHOD OF OBTAINING THEREOF AND […] ON THEM” (priority 1985, dated 1987)

Tests used:
Helminthosporium sativum = assay: Barley seed dressing against root rot (helminthosporiosis); assay type: in vivo; conditions: Aufwandmenge von 1 g/kg
Protocol: Die Aktivität der Verbindung gegen Wurzelfäule (Helminthosporiose) der Gerste wurde unter Laborbedingungen untersucht. Gerstensamen, infiziert mit einer 7 Tage alten Pizkultur Helminthosporium sativum, wurden durch Präparaten ausgehend von 1 g Präparat (bezogen auf den Wirkstoff) je 1 kg Samen nach einem halbtrockenen Verfahren gebeizt, in Aufzuchträume mit befeuchtetem Sand gesät und innerhalb von 11 bis 14 Tagen bei einer zwischen 20 und 22 °C gehalten. Am 14 Tag schätzte man die Keimfähigkeit von Gerstensamen ein und ermittelte die Quote von durch Helminthosporiose befallenen Pflanzen. Die Prüfergebnisse sind in der Tabelle 4 dargestellt.

Acremonium cowum = assay: Mycelial growth inhibition on agar (contact activity); assay type: cell-based; conditions: 120 h, Würzeagar, read-out: Myzelhemmung in %

C=COCCNC(=S)S [Kalium-N-(vinyloxyäthyl)dithiocarbamat]
Wirksamkeit als Beizmittel gegenüber Vergleichsmuster (TMTD und Polykarbazin) (Helminthosporium sativum): zweimal wirksamer
inhibition of growth at 0.003 % (Acremonium cowum; Präparatkonzentration 0,003 %): 100%
inhibition of growth at 0.006 % (Acremonium cowum; Präparatkonzentration 0,006 %): 100%
